# Assay results as given in patent US20080132562A1, “TETRONIC AND TETRAMIC ACIDS” (priority 2003, published 2008).
# Molecular target: T1, purified BACE protein (β-secretase) (Homo sapiens, UniProt P56817)
# T1 construct: made in house
# Assay: Competitive Radioligand Binding Assay (RLBA)
# Conditions: β-secretase inhibition; displacement of tritiated Compound A tracer from plate-coated BACE, binding buffer pH 4.1; read-out: IC50 in vitro
# Method: Competitive Radioligand Binding Assay (RLBA)
# 96 well microplates (Optiplate Packard) are coated with purified BACE protein (see e.g. GB 2,385,124: Examples 1 and 2) using a concentration of 1 μg/ml in 30 mM sodium citrate buffer adjusted to pH 5.5. The coating is achieved by incubation of 100 μl/well for 1-3 days at 4° C. The plate is then washed with 2×300 μl/well of 10 mM citrate pH 4.1. To each well 100 μl binding buffer (30 mM citrate, 100 mM NaCl, 0.1% BSA, pH 4.1) is dispensed. The test compound is added in 5 μl from a DMSO stock solution or appropriate dilutions. To this the tracer (tritiated Compound A, see e.g. GB 2,385,124: Example 4) is added in 10 μl/well from a 10 μCi/ml stock solution in binding buffer. After incubation for 1.5-2 hours in a humid chamber at ambient temperature the plate is washed with 2×300 μl/well water and flipped on a dry towel. Following the addition of 50 μl/well MicroScint20 (Packard) the plate is sealed and vibrated for 5 seconds. The bound radioactivity is counted on a Topcount (Packard). Total binding is typically between 2000 and 10000 cpm/well depending mainly on the purity and concentration of the BACE protein. Non-specific binding as assessed by competition with >1 μM peptidic inhibitor (Bachem #H-4848) is typically between 30 and 300 cpm/well. The IC-50 values are calculated by Microsoft Excel FIT.
# T1 sequence (P56817 46-501): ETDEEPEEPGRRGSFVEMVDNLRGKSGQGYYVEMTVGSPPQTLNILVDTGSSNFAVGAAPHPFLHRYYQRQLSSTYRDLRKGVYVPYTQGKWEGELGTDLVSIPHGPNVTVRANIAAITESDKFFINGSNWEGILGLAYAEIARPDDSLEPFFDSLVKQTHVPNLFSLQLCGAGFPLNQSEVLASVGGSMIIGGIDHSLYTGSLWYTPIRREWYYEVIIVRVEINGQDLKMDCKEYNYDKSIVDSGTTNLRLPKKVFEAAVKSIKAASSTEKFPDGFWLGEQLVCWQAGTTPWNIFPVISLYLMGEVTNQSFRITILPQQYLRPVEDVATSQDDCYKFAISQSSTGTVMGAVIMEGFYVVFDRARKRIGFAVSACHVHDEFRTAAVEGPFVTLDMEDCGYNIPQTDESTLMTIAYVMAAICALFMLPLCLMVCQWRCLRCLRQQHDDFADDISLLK
row,IC50,SMILES
1,57 µM,"O=C(CCCC1CCCCC1)C1=C(O)C(CCc2ccccc2)OC1=O (racemic) [Example E7, Rac-3-(4-cyclohexyl-butyryl)-4-hydroxy-5-phenethyl-5H-furan-2-one]"
2,13 µM,"CC(Cc1ccc(OCc2ccccc2)cc1)C(=O)C1=C(O)C(CC2CCCCC2)OC1=O (stereo not drawn) [Example C9, 3-[3-(4-Benzyloxy-phenyl)-2-methyl-propionyl]-5-cyclohexylmethyl-4-hydroxy-5H-furan-2-one]"
3,12 µM,"COc1ccc(Cl)cc1C(=O)NCCc1ccc(CC(C)C(=O)C2=C(O)C(CC3CCCCC3)OC2=O)cc1 (stereo not drawn) [Example C12, 5-Chloro-N-(2-{4-[3-(5-cyclohexylmethyl-4-hydroxy-2-oxo-2,5-dihydro-furan-3-yl)-2-methyl-3-oxo-propyl]-phenyl}-ethyl)-2-methoxy-benzamide]"
4,15 µM,"O=C(Cc1cn(Cc2ccc(F)cc2)c2ccccc12)C1=C(O)C(CC2CCCCC2)OC1=O (stereo not drawn) [Example C19, 5-Cyclohexylmethyl-3-{[1-(4-fluoro-benzyl)-1H-indol-3-yl]-acetyl}-4-hydroxy-5H-furan-2-one]"
5,11 µM,"O=C(Cn1c2ccccc2c2ccccc21)C1=C(O)C(CC2CCCCC2)OC1=O (stereo not drawn) [Example C33, 3-(Carbazol-9-yl-acetyl)-5-cyclohexylmethyl-4-hydroxy-5H-furan-2-one]"
6,33 µM,"CC(Cc1ccc(C(C)(C)C)cc1)C(=O)C1=C(O)C(Cc2ccccc2)OC1=O (stereo not drawn) [Example D2, 5-Benzyl-3-[3-(4-tert-butyl-phenyl)-2-methyl-propionyl]-4-hydroxy-5H-furan-2-one]"
7,14 µM,"O=C(Cc1c[nH]c2ccccc12)C1=C(O)C(CCCc2ccccc2)OC1=O (stereo not drawn) [Example F5, 4-Hydroxy-3-[(H-indol-3-yl)-acetyl]-5-(3-phenyl-propyl)-5H-furan-2-one]"
8,85 µM,"O=C(CC(c1ccccc1)c1ccccc1)C1=C(O)C(CCCN2CCOCC2)OC1=O (stereo not drawn) [Example G29, 3-(3,3-Diphenyl-propionyl)-4-hydroxy-5-(3-morpholin-4-yl-propyl)-5H-furan-2-one]"
9,31 µM,"CC1(CCc2ccccc2)OC(=O)C(C(=O)CC2c3ccccc3-c3ccccc32)=C1O (stereo not drawn) [Example I7, 3-[(9H-Fluoren-9-yl)-acetyl]-4-hydroxy-5-methyl-5-phenethyl-5H-furan-2-one]"
10,41 µM,"O=C(CC(c1ccccc1)c1ccccc1)C1=C(O)C(CCc2ccccc2)(c2ccccc2)OC1=O (stereo not drawn) [Example J4, 3-(3,3-Diphenyl-propionyl)-4-hydroxy-5-phenethyl-5-phenyl-5H-furan-2-one]"
11,16 µM,"NC(Cc1ccc(OCc2ccccc2)cc1)C(=O)C1=C(O)C(CCc2ccccc2)NC1=O (stereo not drawn) [Example K38, 3-[2-Amino-3-(4-benzyloxy-phenyl)-propionyl]-4-hydroxy-5-phenethyl-1,5-dihydro-pyrrol-2-one; compound with trifluoro-acetic acid]"
12,36 µM,"O=C(Cn1c2ccccc2c2ccccc21)C1=C(O)C(CCc2ccccc2)NC1=O (stereo not drawn) [Example K46, 3-(Carbazol-9-yl-acetyl)-4-hydroxy-5-phenethyl-1,5-dihydro-pyrrol-2-one]"
